5 compounds from PubChem BioAssay AID1259407 (Chemical Carcinogenesis Research Information System (CCRIS), 2018) can be followed below.

Active and inactive are the calls of the source. No rule for the calls is given here.

The test system of the data set is CCRIS mutagenicity, Ames/micronucleus/aberration tests. Description: CCRIS mutagenicity studies.

For the compound `c1ccc(-c2ccncc2)nc1`, the mutagenic call is “inactive; negative” (Test System: AMES SALMONELLA TYPHIMURIUM, Strain/Indicator: TA97, Metabolic Activation: RAT, LIVER, S-9, PHENOBARBITAL, Method: STANDARD PLATE); “active; positive” (Test System: AMES SALMONELLA TYPHIMURIUM, Strain/Indicator: TA98, Metabolic Activation: RAT, LIVER, S-9, PHENOBARBITAL, Method: STANDARD PLATE); “inactive; negative” (Test System: AMES SALMONELLA TYPHIMURIUM, Strain/Indicator: TA100, Metabolic Activation: RAT, LIVER, S-9, PHENOBARBITAL, Method: STANDARD PLATE); “inactive; negative” (Test System: AMES SALMONELLA TYPHIMURIUM, Strain/Indicator: TA1535, Metabolic Activation: RAT, LIVER, S-9, PHENOBARBITAL, Method: STANDARD PLATE); “active; positive” (Test System: AMES SALMONELLA TYPHIMURIUM, Strain/Indicator: TA1537, Metabolic Activation: RAT, LIVER, S-9, PHENOBARBITAL, Method: STANDARD PLATE); “inactive; negative” (Test System: AMES SALMONELLA TYPHIMURIUM, Strain/Indicator: TA1538, Metabolic Activation: RAT, LIVER, S-9, PHENOBARBITAL, Method: STANDARD PLATE).

Take `C[As+](C)(C)CC(=O)[O-]`: the mutagenic call by setting is: (Test System: AMES SALMONELLA TYPHIMURIUM, Strain/Indicator: TA97, Metabolic Activation: NONE) “inactive; negative”; (Test System: AMES SALMONELLA TYPHIMURIUM, Strain/Indicator: TA97, Metabolic Activation: RAT, GUT-FLORA EXTRACT) “inactive; negative”; (Test System: AMES SALMONELLA TYPHIMURIUM, Strain/Indicator: TA97, Metabolic Activation: RAT, LIVER, S-9, AROCLOR 1254) “inactive; negative”; (Test System: AMES SALMONELLA TYPHIMURIUM, Strain/Indicator: TA98, Metabolic Activation: NONE) “inactive; negative”; (Test System: AMES SALMONELLA TYPHIMURIUM, Strain/Indicator: TA98, Metabolic Activation: RAT, GUT-FLORA EXTRACT) “inactive; negative”; (Test System: AMES SALMONELLA TYPHIMURIUM, Strain/Indicator: TA98, Metabolic Activation: RAT, LIVER, S-9, AROCLOR 1254) “inactive; negative”. The mutagenic call (Test System: AMES SALMONELLA TYPHIMURIUM, Strain/Indicator: TA100, Metabolic Activation: NONE) is “inactive; negative”; the mutagenic call (Test System: AMES SALMONELLA TYPHIMURIUM, Strain/Indicator: TA100, Metabolic Activation: RAT, GUT-FLORA EXTRACT) is “inactive; negative”; the mutagenic call (Test System: AMES SALMONELLA TYPHIMURIUM, Strain/Indicator: TA100, Metabolic Activation: RAT, LIVER, S-9, AROCLOR 1254) was “inactive; negative”; the mutagenic call (Test System: CHINESE HAMSTER V-79, Strain/Indicator: V-79/6-THIOGUANINE (HGPRT), Metabolic Activation: NONE, Method: SUSPENSION/PLATE) was “inactive; negative”; the mutagenic call (Test System: CHINESE HAMSTER V-79, Strain/Indicator: V-79/6-THIOGUANINE (HGPRT), Metabolic Activation: RAT, LIVER, S-9, AROCLOR 1254, Method: SUSPENSION/PLATE) was “inactive; negative”; the mutagenic call (Test System: Mouse lymphoma, Strain/Indicator: L5178Y (TK+/TK-), Metabolic Activation: None, Method: Microwell) was “inactive; negative”.

For the compound `CCCCl`, the mutagenic call (End Point: In vitro micronucleus, Test System: Chinese Hamster Ovary (CHO-WBL) cells, Metabolic Activation: None) is “inactive; negative”.

For the compound `C=C(C)CN(CC)c1c([N+](=O)[O-])cc(C(F)(F)F)cc1[N+](=O)[O-]`, the mutagenic call is “inactive; negative” (End Point: In vitro chromasomal aberrations, Test System: Chinese hamster ovary (CHO) cells, Metabolic Activation: None); “inactive; negative” (Test System: Ames Salmonella typhimurium, Strain/Indicator: TA98, Metabolic Activation: None, Method: Plate incorporation); “inactive; negative” (Test System: Ames Salmonella typhimurium, Strain/Indicator: TA98, Metabolic Activation: Rat, Liver, S-9, Aroclor, Method: Plate incorporation); “inactive; negative” (Test System: Ames Salmonella typhimurium, Strain/Indicator: TA100, Metabolic Activation: None, Method: Plate incorporation); “active; positive (weak response)” (Test System: Ames Salmonella typhimurium, Strain/Indicator: TA100, Metabolic Activation: Rat, Liver, S-9, Aroclor, Method: Plate incorporation); “inactive; negative” (Test System: Ames Salmonella typhimurium, Strain/Indicator: TA1535, Metabolic Activation: None, Method: Plate incorporation). Further, the mutagenic call is, setting by setting: (Test System: Ames Salmonella typhimurium, Strain/Indicator: TA1535, Metabolic Activation: Rat, Liver, S-9, Aroclor, Method: Plate incorporation) “active; positive (weak response)”; (Test System: Ames Salmonella typhimurium, Strain/Indicator: TA1537, Metabolic Activation: None, Method: Plate incorporation) “inactive; negative”; (Test System: Ames Salmonella typhimurium, Strain/Indicator: TA1537, Metabolic Activation: Rat, Liver, S-9, Aroclor, Method: Plate incorporation) “inactive; negative”; (Test System: Ames Salmonella typhimurium, Strain/Indicator: TA1538, Metabolic Activation: None, Method: Plate incorporation) “inactive; negative”; (Test System: Ames Salmonella typhimurium, Strain/Indicator: TA1538, Metabolic Activation: Rat, Liver, S-9, Aroclor, Method: Plate incorporation) “inactive; negative”.

For the compound `C/C(C=O)=C\c1ccccc1`, the mutagenic call reads like this: (Test System: AMES SALMONELLA TYPHIMURIUM, Strain/Indicator: TA98, Metabolic Activation: HAMSTER, LIVER, S-9, AROCLOR 1254 (10%), Method: PREINCUBATION) “inactive; negative”; (Test System: AMES SALMONELLA TYPHIMURIUM, Strain/Indicator: TA98, Metabolic Activation: NONE, Method: PREINCUBATION) “inactive; negative”; (Test System: AMES SALMONELLA TYPHIMURIUM, Strain/Indicator: TA98, Metabolic Activation: RAT, LIVER, S-9, AROCLOR 1254 (10%), Method: PREINCUBATION) “inactive; negative”; (Test System: AMES SALMONELLA TYPHIMURIUM, Strain/Indicator: TA100, Metabolic Activation: HAMSTER, LIVER, S-9, AROCLOR 1254 (10%), Method: PREINCUBATION) “inactive; negative”; (Test System: AMES SALMONELLA TYPHIMURIUM, Strain/Indicator: TA100, Metabolic Activation: NONE, Method: PREINCUBATION) “inactive; negative”; (Test System: AMES SALMONELLA TYPHIMURIUM, Strain/Indicator: TA100, Metabolic Activation: RAT LIVER S-9, AROCLOR 1254, Method: PREINCUBATION) “inactive; negative”. Besides, the mutagenic call by setting is: (Test System: AMES SALMONELLA TYPHIMURIUM, Strain/Indicator: TA100, Metabolic Activation: RAT, LIVER, S-9, AROCLOR 1254 (10%), Method: PREINCUBATION) “inactive; negative”; (Test System: AMES SALMONELLA TYPHIMURIUM, Strain/Indicator: TA102, Metabolic Activation: MOUSE LIVER S-9, AROCLOR 1254, Method: PREINCUBATION) “inactive; negative”; (Test System: AMES SALMONELLA TYPHIMURIUM, Strain/Indicator: TA102, Metabolic Activation: NONE, Method: PREINCUBATION) “inactive; negative”; (Test System: AMES SALMONELLA TYPHIMURIUM, Strain/Indicator: TA102, Metabolic Activation: RAT LIVER S-9, AROCLOR 1254, Method: PREINCUBATION) “inactive; negative”; (Test System: AMES SALMONELLA TYPHIMURIUM, Strain/Indicator: TA104, Metabolic Activation: MOUSE LIVER S-9, AROCLOR 1254, Method: PREINCUBATION) “inactive; negative”; (Test System: AMES SALMONELLA TYPHIMURIUM, Strain/Indicator: TA104, Metabolic Activation: NONE, Method: PREINCUBATION) “inactive; negative”. Also, the mutagenic call was “inactive; negative” (Test System: AMES SALMONELLA TYPHIMURIUM, Strain/Indicator: TA104, Metabolic Activation: RAT LIVER S-9, AROCLOR 1254, Method: PREINCUBATION); “inactive; negative” (Test System: AMES SALMONELLA TYPHIMURIUM, Strain/Indicator: TA1535, Metabolic Activation: HAMSTER, LIVER, S-9, AROCLOR 1254 (10%), Method: PREINCUBATION); “inactive; negative” (Test System: AMES SALMONELLA TYPHIMURIUM, Strain/Indicator: TA1535, Metabolic Activation: NONE, Method: PREINCUBATION); “inactive; negative” (Test System: AMES SALMONELLA TYPHIMURIUM, Strain/Indicator: TA1535, Metabolic Activation: RAT, LIVER, S-9, AROCLOR 1254 (10%), Method: PREINCUBATION); “inactive; negative” (Test System: AMES SALMONELLA TYPHIMURIUM, Strain/Indicator: TA1537, Metabolic Activation: HAMSTER, LIVER, S-9, AROCLOR 1254 (10%), Method: PREINCUBATION); “inactive; negative” (Test System: AMES SALMONELLA TYPHIMURIUM, Strain/Indicator: TA1537, Metabolic Activation: NONE, Method: PREINCUBATION). Further, the mutagenic call (Test System: AMES SALMONELLA TYPHIMURIUM, Strain/Indicator: TA1537, Metabolic Activation: RAT, LIVER, S-9, AROCLOR 1254 (10%), Method: PREINCUBATION) is “inactive; negative”.
